Assay results taken from patent publication US20220168400A1, “USE OF A MANGANESE SUPEROXIDE DISMUTASE WITH HIGH STABILITY IN THE PREVENTION OR TREATMENT OF CEREBRAL STROKE” (CARRY HEALTH BIOPHARMACEUTICALS (HANGZHOU) CO., LTD., priority 2019, published 2022).
Marks after values point to notes of the source that are not given here.

What was measured:
Format in all cases: in vivo
[1] = test system: cerebral hemorrhage model in wild-type AB strain zebrafish; test: Blood flow volume in simvastatin-induced cerebral hemorrhage model in zebrafish; details: icariin 30 μM; for Blood flow volume (mean ± SE): n = 10, model control 0.13, normal control 0.30 nL/s
Description: 3 dpf wild-type AB strain zebrafish was administered with an aqueous simvastatin solution (0.5 μM) for 18 hours to establish a cerebral hemorrhage model in zebrafish. 180 wild-type AB strain zebrafishes at 3 days post fertilization (3 dpf) were randomly selected and put in a six-well plate, 30 per well (experiment group). Aqueous MS-SOD solutions with concentrations of 222, 667 and 2000 μg/mL were administrated respectively, the concentration of positive control drug icariin was 30 μM, and the normal control group (the zebrafishes were treated with water for fish) and the model control group were set at the same time. The volume of each well was 3 mL. After treatment of zebrafishes with samples for 4 hours, except for the normal control group, the other experiment groups were treated with simvastatin for 18 hours to establish the cerebral hemorrhage model. After the treatment, 10 zebrafishes from each group were randomly selected and placed in a heart rate and blood flow analysis system to record blood flow video of zebrafish, and analyze the blood flow volume (O) of zebrafish. The statistical significance of the blood flow volume was used to evaluate the improvement effect of MS-SOD on blood flow volume of cerebral hemorrhage. The formula of the improvement effect of MS-SOD on blood flow volume of cerebral hemorrhage was as follows: [formula] Statistical analysis was performed using variance analysis and Dunnett's T-test, and p<0.05 indicated a significant difference. 4.

[2] = test system: cerebral hemorrhage model in wild-type AB strain zebrafish; test: Simvastatin-induced cerebral hemorrhage model in zebrafish (incidence); details: icariin 30 μM; for Incidence of cerebral hemorrhage: model control 83%
Description: 1 dpf wild-type AB strain zebrafish was administered with an aqueous simvastatin solution (0.5 μM) for 18 hours to establish a cerebral hemorrhage model in zebrafish. 180 wild-type AB strain zebrafishes at 1 day post fertilization (1 dpf) were randomly selected and put in a six-well plate, 30 per well (experiment group). Simvastatin was used to induce a cerebral hemorrhage model in zebrafish. Aqueous MS-SOD solutions with concentrations of 222, 667 and 2000 μg/mL were administrated respectively, the concentration of positive control drug icariin was 30 μM, and the normal control group and the model control group were set at the same time. The volume of each well was 3 mL. After 18 hours of co-treatment with MS-SOD and simvastatin, 30 zebrafishes from each group were selected and observed under a microscope, photos were taken and saved. The number of zebrafish with cerebral hemorrhage was counted, and the incidence of cerebral hemorrhage in zebrafish of each experiment group was calculated.

[3] = test system: cerebral hemorrhage model in wild-type AB strain zebrafish; test: Movement velocity in simvastatin-induced cerebral hemorrhage model in zebrafish; details: icariin 30 μM (Table 3 prints 25 μg/mL); for Movement velocity (mean ± SE): n = 10, model control 80, normal control 198 mm/s
Description: 5 dpf wild-type AB strain zebrafish was administered with an aqueous simvastatin solution (0.5 μM) for 18 hours to establish a cerebral hemorrhage model in zebrafish. 180 wild-type AB strain zebrafishes at 5 days post fertilization (5 dpf) were randomly selected and put in a six-well plate, 30 per well (experiment group). Aqueous MS-SOD solutions with concentrations of 222, 667 and 2000 μg/mL were administrated respectively, the concentration of positive control drug icariin was 30 μM, and the normal control group and the model control group were set at the same time. The volume of each well was 3 mL. After treatment of zebrafishes with samples for 4 hours, except for the normal control group, the other experiment groups were treated with simvastatin for 18 hours to establish the cerebral hemorrhage model. After the treatment, 10 zebrafishes from each group were randomly selected to measure the movement velocity (V) of zebrafish using a behavioral analyzer. The statistical significance of the movement velocity was used to evaluate the behavioral improvement effect of MS-SOD on cerebral hemorrhage. The formula of the behavioral improvement effect of MS-SOD on cerebral hemorrhage was as follows: [formula] Statistical analysis was performed using variance analysis and Dunnett's T-test, and p<0.05 indicated a significant difference.

[4] = test system: cerebral ischemia model in Albino strain zebrafish; test: Ponatinib-induced cerebral ischemia model in zebrafish; details: aspirin 50 μg/mL; for Incidence of cerebral ischemia: model control 100%
Description: Melanin allele mutated Albino strain zebrafish at 2 days post fertilization (2 dpf) was administered with an aqueous ponatinib solution (1 μg/mL) for 18 hours to establish a cerebral ischemia model in zebrafish. 180 melanin allele mutated Albino strain zebrafishes at 2 days post fertilization (2 dpf) were randomly selected. 30 zebrafishes were treated in each well (experiment group), and aqueous MS-SOD solutions with concentrations of 222, 667 and 2000 μg/mL were administrated respectively, the concentration of positive control drug aspirin was 50 μg/m L, and the normal control group and the model control group were set at the same time. The volume of each well was 3 mL. After MS-SOD treatment for a period of time, except for the normal control group, all the other experiment groups were simultaneously administrated with aqueous ponatinib solution to induce the cerebral ischemia model in zebrafish. After 18 hours of co-treatment with MS-SOD and ponatinib, 20 fish were randomly selected from each well and stained with o-Dianisidine. After staining, photos were taken and data were collected to count the number of zebrafish with cerebral ischemia and calculate the incidence of cerebral ischemia in zebrafish of each experiment group.

Structure (SMILES)	Blood flow volume improvement effect [1] [%]	Blood flow volume (mean ± SE) [1] [nL/s]	Blood flow volume (mean ± SE) ([1]; listed as icariin) [nL/s]	Improvement effect on cerebral hemorrhage [2]	Number of zebrafish with cerebral hemorrhage ([2]; n = 30)	Incidence of cerebral hemorrhage ([2]; n = 30)	Incidence of cerebral hemorrhage ([2]; n = 30, listed as icariin) [%]	Improvement effect on cerebral hemorrhage ([2]; listed as icariin) [%]	Movement improvement effect [3]	Movement velocity (mean ± SE) [3] [mm/s]	Movement velocity (mean ± SE) ([3]; listed as icariin) [mm/s]	Movement improvement effect ([3]; listed as icariin) [%]	Improvement effect on cerebral ischemia [4]	Number of zebrafish with cerebral ischemia ([4]; n = 20)	Incidence of cerebral ischemia ([4]; n = 20)	Incidence of cerebral ischemia ([4]; n = 20, listed as aspirin) [%]	Improvement effect on cerebral ischemia ([4]; listed as aspirin) [%]
COc1ccc(-c2oc3c(CC=C(C)C)c(O[C@@H]4O[C@H](CO)[C@@H](O)[C@H](O)[C@H]4O)cc(O)c3c(=O)c2O[C@@H]2O[C@@H](C)[C@H](O)[C@@H](O)[C@H]2O)cc1 [Icariin, icariin, reference compound]	29	0.18 ± 0.025	0.18	32* %	17	56* %	57	32	22* %	106 ± 7	106	22	–	–	–	–	–
CC(=O)Oc1ccccc1C(=O)O [Aspirin, aspirin, reference compound]	–	–	–	–	–	–	–	–	–	–	–	–	65*** %	7	35*** %	35	65
